Assay results: patent US10654884B2 (Vitae Pharmaceuticals, Inc., priority 2014, dated 2020)

Legend:
human CD73 = biological target: T1, human CD73 (Homo sapiens, UniProt P21589); assay: Inhibition of 5′-Nucleotidase Activity of CD73 (Assay 1); assay type: biochemical; settings: human CD73 4 ng/ml, 50 μM CMP, 20 min at RT, malachite green readout; read-out: Assay 1: IC50, inhibition of 5′-nucleotidase activity of CD73
T1 construct: purchased R&D Systems 5795-EN-010
T1 sequence (P21589 27-549): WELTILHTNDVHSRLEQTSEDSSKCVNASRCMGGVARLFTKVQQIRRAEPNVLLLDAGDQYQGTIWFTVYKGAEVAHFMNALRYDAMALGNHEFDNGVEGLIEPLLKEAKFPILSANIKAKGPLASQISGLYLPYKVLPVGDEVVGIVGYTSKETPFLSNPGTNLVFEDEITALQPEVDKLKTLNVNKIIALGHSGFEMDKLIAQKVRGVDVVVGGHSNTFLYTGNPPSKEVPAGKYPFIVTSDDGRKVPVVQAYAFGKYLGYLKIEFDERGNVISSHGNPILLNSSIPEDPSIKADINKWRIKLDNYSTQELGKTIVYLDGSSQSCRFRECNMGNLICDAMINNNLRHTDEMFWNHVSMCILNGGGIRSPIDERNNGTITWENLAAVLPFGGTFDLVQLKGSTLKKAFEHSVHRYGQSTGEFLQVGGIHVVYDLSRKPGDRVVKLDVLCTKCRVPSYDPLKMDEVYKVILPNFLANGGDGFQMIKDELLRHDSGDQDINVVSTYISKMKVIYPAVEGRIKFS
How it was run: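 Human CD73 (4 ng/ml final) was incubated with 50 μM CMP in 25 mM Tris-HCl pH 7.4, 0.005% Brij-35 for 20 min at RT. Reactions were stopped with malachite green reagent and absorbance was read at 620 nm. IC50 came from a 4-parameter logistic fit.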

[1] = biological target: T2, CD73 on U138 neuroglioma cells (Homo sapiens, UniProt P21589); assay: Inhibition of Ecto-5′-Nucleotidase Activity in U138 Neuroglioma Cells (Assay 2); assay type: cell-based; settings: 50 μM CMP, 2 hr at 37° C., malachite green readout, read-out: Assay 2: IC50, inhibition of ecto-5′-nucleotidase activity in U138 neuroglioma cells
T2 construct: U138 neuroglioma cells, which express CD73 on their surface; endogenous in cells; host or cells: U138 neuroglioma cells (ATCC)
T2 sequence (P21589 27-549): T1 sequence (P21589 27-549)
How it was run: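 Whole-cell CD73 activity in U138 human neuroglioma cells seeded the day before, washed free of phosphate, then given test compound dilutions with 50 μM CMP in HEPES-buffered saline, pH 7.4, DMSO ≤0.1%. Incubated 2 hr at 37° C; released inorganic phosphate in supernatant measured by malachite green; IC50 by nonlinear regression.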

| Structure (SMILES) | IC50 (human CD73) | IC50 [1] |
| --- | --- | --- |
| CCOC(=O)[C@H](OC[C@H]1O[C@@H](n2cnc3c(N)nc(Cl)nc32)[C@H](O)[C@@H]1O)P(=O)(O)O (single isomer, unassigned) [1, isomer 1] | < 100 nM | < 100 nM |
| COc1nc(OC)c2ncn([C@@H]3O[C@H](COC(C(=O)OC(C)(C)C)P(=O)(O)O)[C@@H](O)[C@H]3O)c2n1 (stereo partly drawn) [Example 33, (2-(tert-butoxy)-1-(((2R,3S,4R,5R)-5-(2,6-dimethoxy-9H-purin-9-yl)-3,4-dihydroxytetrahydrofuran-2-yl)methoxy)-2-oxoethyl)phosphonic Acid] | 100 to 1000 nM | 100 to 1000 nM |
| CCOC(=O)[C@@](C)(OC[C@H]1O[C@@H](n2cnc3c(N)nc(Cl)nc32)[C@H](O)[C@@H]1O)P(=O)(O)O (single isomer, unassigned) [Example 9a] | 100 to 1000 nM | 100 to 1000 nM |
| CCOC(=O)[C@@H](OC[C@H]1O[C@@H](n2cnc3c(N)nc(F)nc32)[C@H](O)[C@@H]1O)P(=O)(O)O (single isomer, unassigned) [Example 52] | < 100 nM | 100 to 1000 nM |
| O=C(O)C(OC[C@H]1O[C@@H](n2cnc3c(N[C@H]4CCOC4)nc(Cl)nc32)[C@H](O)[C@@H]1O)C(=O)O [Example 83, 2-(((2R,3S,4R,5R)-5-(2-chloro-6-(((S)-tetrahydrofuran-3-yl)amino)-9H-purin-9-yl)-3,4-dihydroxytetrahydrofuran-2-yl)methoxy)malonic acid] | 100 to 1000 nM | > 1000 nM |
| CCOC(=O)C(OC[C@H]1C[C@@H](n2cnc3c(N)nc(Cl)nc32)[C@H](O)[C@@H]1O)P(=O)(O)O (single isomer, unassigned) [Example 76] | < 100 nM | < 100 nM |
| Nc1nc(F)nc2c1ncn2[C@@H]1O[C@H](CO[C@@H](C(=O)O)P(=O)(O)O)[C@@H](O)[C@H]1O [Example 53, (R)-2-(((2R,3S,4R,5R)-5-(6-amino-2-fluoro-9H-purin-9-yl)-3,4-dihydroxytetrahydrofuran-2-yl)methoxy)-2-phosphonoacetic Acid] | < 100 nM | 100 to 1000 nM |
| Nc1nc(Cl)nc2c1ncn2[C@@H]1O[C@H](COC(C(=O)O)P(=O)(O)O)[C@@H](O)[C@H]1O (single isomer, unassigned) [Example 61] | < 100 nM | < 100 nM |
| CCOC(=O)[C@H](OC[C@H]1O[C@@H](n2cnc3c(N)nc([C@H]4NCCO4)nc32)[C@H](O)[C@@H]1O)P(=O)(O)O (single isomer, unassigned) [Example 51a] | 100 to 1000 nM | > 1000 nM |
| CCNC(=O)[C@@H](OC[C@H]1O[C@@H](n2cnc3c(NCC)nc(Cl)nc32)[C@H](O)[C@@H]1O)P(=O)(O)O (single isomer, unassigned) [Example 34a] | < 100 nM | < 100 nM |
| N#Cc1ccccc1CC(OC[C@H]1O[C@@H](n2cnc3c(N)nc(Cl)nc32)[C@H](O)[C@@H]1O)(C(=O)O)C(=O)O [Example 85] | < 100 nM | < 100 nM |
| CC(C)(C)OC(=O)[C@H](OC[C@H]1O[C@@H](n2cnc3c(N)nc(C#N)nc32)[C@H](O)[C@@H]1O)P(=O)(O)O [Example 54a, ((R)-1-(((2R,3S,4R,5R)-5-(6-amino-2-cyano-9H-purin-9-yl)-3,4-dihydroxytetrahydrofuran-2-yl)methoxy)-2-(tert-butoxy)-2-oxoethyl)phosphonic Acid] | 100 to 1000 nM | > 1000 nM |
| CCOC(=O)[C@H](OC[C@H]1O[C@@H](n2cnc3c(NCc4ccccc4)nc(Cl)nc32)[C@H](O)[C@@H]1O)P(=O)(O)O (single isomer, unassigned) [Example 24] | < 100 nM | < 100 nM |
| Nc1nc(Cl)nc2c1ncn2[C@@H]1O[C@H](CO[C@@H](C(=O)OCc2ccccc2)P(=O)(O)O)[C@@H](O)[C@H]1O (single isomer, unassigned) [Example 16] | < 100 nM | < 100 nM |
| CCOC(=O)[C@H](OC[C@@H]1O[C@H](n2cnc3c(N)nc(C)nc32)[C@@H](O)[C@H]1O)P(=O)(O)O (single isomer, unassigned) [Example 37] | < 100 nM | 100 to 1000 nM |
| CCOC(=O)C(OC[C@H]1C[C@@H](n2nnc3c(NC4CCCC4)nc(Cl)nc32)[C@H](O)[C@@H]1O)P(=O)(O)O (stereo partly drawn) [Example 92, (1-(((1R,2R,3S,4R)-4-(5-chloro-7-(cyclopentylamino)-3H-[1,2,3]triazolo[4,5-d]pyrimidin-3-yl)-2,3-dihydroxycyclopentyl)methoxy)-2-ethoxy-2-oxoethyl)phosphonic Acid] | < 100 nM | < 100 nM |
| CNc1nc(Cl)nc2c1ncn2[C@@H]1O[C@H](COC(C(F)(F)F)P(=O)(O)O)[C@@H](O)[C@H]1O (single isomer, unassigned) [Example 100a] | < 100 nM | < 100 nM |
| CCOC(=O)[C@@H](OC[C@H]1O[C@@H](n2cnc3c(NC(=O)c4ccccc4)nc(Cl)nc32)[C@H](O)[C@@H]1O)P(=O)(O)O (single isomer, unassigned) [Example 36a] | 100 to 1000 nM | > 1000 nM |
| CCNC(=O)[C@H](OC[C@H]1O[C@@H](n2cnc3c(N)nc(Cl)nc32)[C@H](O)[C@@H]1O)P(=O)(O)O (single isomer, unassigned) [Example 18] | < 100 nM | 100 to 1000 nM |
| CCOC(=O)[C@H](OC[C@H]1O[C@@H](n2cnc3c(N)nc(-c4ccccc4)nc32)[C@H](O)[C@@H]1O)P(=O)(O)O (single isomer, unassigned) [Example 40] | < 100 nM | 100 to 1000 nM |
